This is an account of results in patent publication US5466679A, “Carboranyl uridines and their use in boron neutron capture therapy” (The Ohio State University Research Foundation, priority 1994, dated 1995).

Several values for one entry are separate records, joined by “and”; a condition that tells them apart may be missing. Equal values may be shown once.

The test system of test [1] is F98 glioma cells. Description: Cellular uptake of boron in F98 glioma cells (16 hours incubation, DCP atomic emission spectroscopy). The conditions noted are these: for cellular uptake of boron at 16 hours: F98 glioma cells; for Boron Conc. /g, 16 hrs incubation: F98 Glioma Cells. Format: cell-based. As for the experimental part:
To illustrate the uptake and retention of the various boron-containing compounds as taught hereinabove, there were evaluated 5'-O-(o-carboran-1-ylmethyl)uridine of FIG. 1, and 3-O-(o-carboran-1-ylmethyl)-D-glucose of FIG. 2 in F98 glioma cells. The cellular uptake of boron at 16 hours for the compound of FIG. 1 was 83.8 micrograms of boron per gram of cells. The cellular uptake of boron at 16 hours for the compound of FIG. 2 was 65.2 micrograms of boron per gram of cells. […] This is an unexpected improvement in boron uptake and retention achieved by the present invention, relative to conventional Na2 B12 H11 SH.
(§1) Semiconfluent F98 glioma cells were incubated with the compound for 16 hours and after two washings with serum-free media, the cells were trypsinized, washed twice again and aliquots were analyzed for boron by Direct Current Plasma (DCP) Atomic Emission Spectroscopy. For the boron analyses there was used the following instrumentation and sample preparation for analysis:
(§2) A Spectraspan VB Direct Current Plasma-Atomic Emission Spectrometer, (Model #DCP-AES, Applied Research Laboratories, Brea, Calif.) was used for the boron determinations. This instrument combines a high resolution spectrometer with a high resolution Echelle grating and prism. The plasma source is argon gas heated to a temperature of 6000°-7000° K. The instrument settings used for analysis were: wave length 249.773 nm, argon flow 7L/min sleeve 50 psi, ceramic nebulizer 20 psi, entrance slits […], as predetermined by the manufacturer. The viewing height was […] between the arms of the "V" of the inverted "Y" configuration created by the three electrodes. The liquid uptake rate was approximately 2 mL/min. The operating power, once the plasma was established, was ^~ 40 V in the jet power supply with a 7 amp constant current output. With the operating parameters used no background correction was needed. Integration times and gain had been optimized by the manufacturer and were preset in the computer software. These particular parameters are not user alterable.
(§3) One to 2 mL of concentrated sulfuric acid, which was adequate for up to 1 g of tissue or cells, were added to 150×16 mm Pyrex culture tubes, and these were placed in a mineral oil bath, heated to 100° C. in an exhaust hood and stirred intermittently for one hour. Since no interference with the boron signal was found with the sulfuric acid-hydrogen peroxide cocktail, the amount of sulfuric acid used in digestion was determined by the ease of digestion for a particular sample, rather than by any specific ratio of sample weight to acid volume. The amount and type of tissue were critical factors for successful digestion. If the amount of tissue or cells approached 1 gram or more, there was more chance for overheating and loss of sample by bubbling. If sample size was small (<200 mg) there was more flexibility in terms of acid volume and digestion time.

The test system of test [2] is F98 glioma cells. Description: Persistence (retention) of boron in F98 glioma cells. Format: cell-based. As for the experimental part: as §1, §2, §3
The results for cellular uptake and retention (i.e. persistence studies) for certain compounds of this invention compared to the clinically-used Na2 B12 H11 SH compound are shown in the following TABLE 1.

Where [3] appears, read: Incubating Media […], + approximates the blank value for cells.

In the case of “3-O-(o-Carborany-1-ylmethyl)-D-glucose [FIG. 2]”, the “cellular uptake of boron at 16 hours” value in the test with F98 glioma cells [1] is on record as 65.2 micrograms of boron per gram of cells.
Regarding “5'-O-(o-Carboran-1-ylmethyl)uridine [FIG. 1]”, in the test with F98 glioma cells [1] (Boron Conc. in Incubating Media 13.5 µg/ml), the “Boron Conc. /g, 16 hrs incubation” value is 88.9 g⁻¹. Further, the “cellular uptake of boron at 16 hours” value in the test with F98 glioma cells [1] is reported as 83.8 micrograms of boron per gram of cells. In the test on F98 glioma cells [2] (Incubating Media […]), the “Persistence Studies, 12 hrs, B/g” value turned out to be 23.9 B/g and the “Persistence Studies, 24 hrs, B/g” value is reported as 19.3 B/g. Also, the “Persistence Studies, 48 hrs, B/g” value with F98 glioma cells [2] (48 hrs, Incubating Media […]) worked out at 10.5 B/g.
“sodium mercaptoundecahydro-closo-dodecaborane [Na2 B12 H11 SH]”: the “Boron Conc. /g, 16 hrs incubation” value in the test on F98 glioma cells [1] (Boron Conc. in Incubating Media 14.6 µg/ml) is 4.3 g⁻¹; in the test on F98 glioma cells [1] (Boron Conc. in Incubating Media 58.0 µg/ml), 7.2 g⁻¹; with F98 glioma cells [1] (Boron Conc. in Incubating Media 116.0 µg/ml) it was 26.7 g⁻¹. In the test with F98 glioma cells [1], the “cellular uptake of boron at 16 hours” value is “about 2.0 micrograms of boron per gram of cells”. The “Persistence Studies, 12 hrs, B/g” value in the test with F98 glioma cells [2] (setting [3]) is 3.1 B/g and 2.8 B/g and 3.4 B/g. For the same substance, the “Persistence Studies, 24 hrs, B/g” value in the test on F98 glioma cells [2] (setting [3]) is “.4 B/g and .8 B/g and 1.8 B/g”. The “time to attain background levels (rapidly removed)” value in the test on F98 glioma cells [2] (F98 glioma cells) was 6 to 12 h.
